Assay results reported in patent publication US10947202B2, “Sodium ion channel inhibitors and pharmaceutically acceptable salts and polymorphs thereof and uses thereof” (SHANGHAI HAIYAN PHARMACEUTICAL TECHNOLOGY CO., LTD., priority 2017, dated 2021).
Read-outs that look alike come from different tables or passages of the source.

How the values were obtained:
[1] = target: T1, hERG potassium ion channel (Homo sapiens, UniProt Q12809); experiment: Effect on the hERG potassium ion channel (CHO hERG cells, manual patch clamp); assay type: cell-based
T1 construct: host or cells: CHO (CHO hERG, passage P15)
Procedure: 2.1.1 Cells used in this experiment are CHO cell lines (supplied by Sophion Bioscience, Denmark) which are hERG cDNA transfectant and stably express hERG channels, cell progeny is P15. Cells are cultured in medium containing the following ingredients Invitrogen): Ham's F12 medium, 10% (v/v) inactivated fetal bovine serum, […] hygromycin B, […] Geneticin.
2.1.2 CHO hERG cells were grown in Petri dishes containing the above medium and cultured in an incubator containing 5% CO2 at 37° C. CHO hERG cells were transferred onto round glass plates in Petri dishes, and grown on the same culture medium and culture conditions as above 24 h to 48 h prior to the electrophysiological experiments, and the density of CHO hERG cells on each round glass plate needs to meet the requirements that the vast majority of cells are independent and individual.
The following solutions (supplied by Sophion) were used for electrophysiological recording. The reagents used in this test were provided by Sigma.
In this experiment, whole-cell current recording was performed using a manual patch clamp system (HEKA EPC-10 signal amplification and digital conversion system, purchased from HEKA Electronic, Germany). The round glass slide of which surface CHO hERG cells were grown on was placed in an electrophysiological recording slot under an inverted microscope. Perfused steadily with extracellular fluid in recording slot (approximately 1 ml per minute). A conventional whole-cell patch clamp current recording technique was used in the experiment. Unless otherwise specified, experiments were performed at normal room temperature (about 25° C.). Cell clamping was at −80 mV. […] The hERG potassium current recorded in the above steps could be superfused for test drug after the steady perfusion state of the extracellular fluid in the recording slot had been stabilized until the inhibition of the hERG current by the drug reached a steady state. […]
The test data were analyzed by the data analysis software provided by HEKA Patchmaster (V2x73.2), Microsoft Excel and Graphpad Prism 5.0.

Solubility experiment = assay type: physicochemical; conditions: listed as free base sample
Procedure: The solubility of crystal forms A, D, E-1, E-3, F and free base sample in buffer of 0.1M HCl, pH 4.5, pH 6.8 and water was tested at room temperature. In the test, the standard curves of free base sample and five crystal forms were plotted. Subsequently, 6 mg of API and five crystal form samples were weighed, respectively, and 2 ml of the solvent was added, the mixture was shaken at room temperature for 4 h, then ultrasonicated for 30 min, centrifuged, and the supernatant was taken out, filtered through a 0.45 μm filter and injected, and the solubility was measured, the results are shown in Table 28 (concentration is in mg/ml).

T1 sequence (Q12809 whole entry): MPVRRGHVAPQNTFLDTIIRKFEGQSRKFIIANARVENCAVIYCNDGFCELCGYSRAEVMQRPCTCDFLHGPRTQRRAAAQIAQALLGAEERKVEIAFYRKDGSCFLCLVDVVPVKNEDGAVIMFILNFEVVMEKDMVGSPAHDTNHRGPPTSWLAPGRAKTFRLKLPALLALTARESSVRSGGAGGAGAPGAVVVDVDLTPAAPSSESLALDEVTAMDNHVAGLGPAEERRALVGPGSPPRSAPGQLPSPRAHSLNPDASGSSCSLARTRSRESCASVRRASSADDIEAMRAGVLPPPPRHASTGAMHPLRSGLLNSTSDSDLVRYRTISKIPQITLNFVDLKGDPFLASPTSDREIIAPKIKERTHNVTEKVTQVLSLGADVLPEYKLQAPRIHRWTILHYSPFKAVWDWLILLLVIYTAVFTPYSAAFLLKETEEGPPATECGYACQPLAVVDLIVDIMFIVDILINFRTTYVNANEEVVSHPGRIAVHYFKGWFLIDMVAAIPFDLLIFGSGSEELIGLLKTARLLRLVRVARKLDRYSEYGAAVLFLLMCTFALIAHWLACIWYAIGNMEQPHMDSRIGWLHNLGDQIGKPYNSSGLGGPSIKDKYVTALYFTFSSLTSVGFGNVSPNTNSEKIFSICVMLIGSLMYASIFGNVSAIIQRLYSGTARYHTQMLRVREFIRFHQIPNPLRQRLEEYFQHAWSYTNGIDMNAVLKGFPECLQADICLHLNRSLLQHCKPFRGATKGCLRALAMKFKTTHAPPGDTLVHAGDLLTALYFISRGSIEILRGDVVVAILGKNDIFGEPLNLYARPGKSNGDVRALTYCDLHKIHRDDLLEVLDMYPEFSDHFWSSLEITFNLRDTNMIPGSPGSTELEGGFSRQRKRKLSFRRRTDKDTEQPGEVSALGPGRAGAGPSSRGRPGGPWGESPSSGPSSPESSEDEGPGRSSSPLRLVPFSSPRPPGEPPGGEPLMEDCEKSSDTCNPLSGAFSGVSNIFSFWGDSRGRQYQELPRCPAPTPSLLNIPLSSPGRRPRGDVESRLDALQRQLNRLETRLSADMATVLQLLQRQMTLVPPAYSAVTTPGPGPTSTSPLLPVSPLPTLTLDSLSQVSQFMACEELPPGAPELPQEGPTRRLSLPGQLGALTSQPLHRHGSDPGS

With Cc1cc(N2CCN(Cc3cc(F)c(C(=O)NS(=O)(=O)C4CC4)cc3Cl)CC2)ccc1Cl [the free base of formula X compound, 5-chloro-4-((4-(4-chloro-3-methylphenyl)piperazin-1-yl)methyl)-N-(cyclopropylsulfonyl)-2-fluorobenzamide] the “inhibitory activity on the hERG potassium ion channel” value [1] was “little inhibitory activity”, the IC50 ([1]; read-out: hERG inhibitory concentration IC50) was greater than 10000 nM and the IC50 ([1]; read-out: hERG potassium ion channel (IC50/nM)) was greater than 10000 nM. The “Solubility (mg/mL) 0.1M HCl” value (Solubility experiment; 0.1M HCl, room temperature) was 0.065 mg/mL, the “Solubility (mg/mL) pH4.5” value (Solubility experiment; buffer pH 4.5, room temperature) was 0.001 mg/mL and the “Solubility (mg/mL) pH6.8” value (Solubility experiment; buffer pH 6.8, room temperature) was 0.021 mg/mL. The “Solubility (mg/mL) H2O” value (Solubility experiment; water, room temperature) was 0.027 mg/mL.
